Our source for the Km values is article PMC3476531, “Synergy of Peptide and Sugar in O-GlcNAcase Substrate Recognition” (Chemistry & Biology, 2012).

Test [1] deals with T1, hOGA (Homo sapiens, UniProt O60502).
T1 sequence (O60502 1-916): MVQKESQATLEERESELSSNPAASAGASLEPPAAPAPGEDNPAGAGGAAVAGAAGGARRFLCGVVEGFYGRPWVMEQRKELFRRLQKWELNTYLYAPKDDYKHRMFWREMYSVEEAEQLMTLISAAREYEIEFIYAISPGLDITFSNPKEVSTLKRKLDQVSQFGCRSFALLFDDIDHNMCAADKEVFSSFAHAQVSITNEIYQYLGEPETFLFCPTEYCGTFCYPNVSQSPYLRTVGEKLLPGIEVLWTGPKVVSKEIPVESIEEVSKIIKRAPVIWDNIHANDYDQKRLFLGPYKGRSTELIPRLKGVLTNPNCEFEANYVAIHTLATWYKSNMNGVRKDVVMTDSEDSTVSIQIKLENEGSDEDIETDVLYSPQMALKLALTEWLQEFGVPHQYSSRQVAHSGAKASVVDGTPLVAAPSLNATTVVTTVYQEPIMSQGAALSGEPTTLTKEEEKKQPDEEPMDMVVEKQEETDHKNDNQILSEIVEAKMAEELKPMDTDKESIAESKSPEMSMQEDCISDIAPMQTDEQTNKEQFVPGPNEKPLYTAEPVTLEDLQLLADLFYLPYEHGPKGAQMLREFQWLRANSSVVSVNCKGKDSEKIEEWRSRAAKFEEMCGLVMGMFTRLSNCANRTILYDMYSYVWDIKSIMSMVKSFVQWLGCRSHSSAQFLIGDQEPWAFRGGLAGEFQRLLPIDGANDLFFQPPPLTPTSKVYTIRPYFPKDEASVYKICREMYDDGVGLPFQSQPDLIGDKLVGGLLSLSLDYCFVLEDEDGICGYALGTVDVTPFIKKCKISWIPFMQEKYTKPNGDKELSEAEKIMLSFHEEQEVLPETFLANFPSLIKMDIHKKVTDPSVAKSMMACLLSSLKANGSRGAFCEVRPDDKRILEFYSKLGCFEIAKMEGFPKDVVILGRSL
Nature of the test: hOGA glycopeptide hydrolysis, substrate competition assay with 4MU-GlcNAc reporter. On the set-up: GST (N); made in house; host or cells: transiently transfected HEK293 cells. It is filed as biochemical. To be noted: wild-type full-length hOGA, competition with 4MU-GlcNAc reporter substrate, 37°C, 50 mM citrate-phosphate buffer pH 7.4, 0.1 mg/ml BSA, triplicate, ± error of curve-fit, read-out: Michaelis constant (KM) of glycopeptide substrate for hOGA. How it is done:
Protein was expressed in transiently transfected HEK293 cells and purified via glutathione sepharose affinity chromatography.
hOGA and CpOGA glycopeptide hydrolysis assays were carried out as described previously ([Dorfmueller et al., 2006; Schimpl et al., 2010]) using multisubstrate enzyme kinetics with the fluorigenic pseudosubstrate 4MU-GlcNAc as the reporter substrate. […] Reactions were performed at 37°C in 50 mM citrate-phosphate buffer (pH 7.4) and 0.1 mg/ml BSA. Experiments were performed in triplicate, and data were analyzed and plotted with GraphPad PRISM.

Another test addresses T2, hOGA Y69K (Homo sapiens, UniProt O60502, Y69K).
T2 construct: GST (N); made in house; host or cells: transiently transfected HEK293 cells
T2 sequence (O60502 1-916 Y69K): T1 sequence (O60502 1-916) with Y69K
The test can be described thus: hOGA Y69K mutant glycopeptide hydrolysis, substrate competition assay. It is filed as biochemical. The settings on record: hOGA point mutant Y69K; competition with 4MU-GlcNAc; 37°C, pH 7.4; triplicate; read-out: Michaelis constant (KM) for hOGA Y69K.

Test [2] deals with T1, hOGA. Also noted: GST (N); made in house. The settings on record: wild-type hOGA; substrate competition assay with 4MU-GlcNAc; value reproduced from earlier paper; ref Schimpl et al., 2010; read-out: Michaelis constant (KM) of glycopeptide substrate for hOGA; cited from earlier work. The source says:
Table 1 Hydrophobic Stacking Interactions of Tyr69 Are Essential for Substrate Binding by hOGA | column: hOGA Peptide / VAHS(O-GlcNAc)GAK || Table 2 Intramolecular Hydrogen Bonds Stabilize the Substrate Conformation and Reduce the Km for hOGA | column: TAB1 Peptide (Ser395) || Figure 1 OGA Binds Different O-GlcNAc Glycopeptides with Similar Conformation but Different Affinities (A) Origin and sequence of O-GlcNAc peptides. The sequence of the longest peptides used is given, with residues observed in the crystal structure highlighted by colored boxes, and the shorter peptides indicated by brackets.

Numbering of substitutions follows the chain as printed. Read-outs that look alike come from different tables or passages of the source.

For “PVSVPYS(O-GlcNAc)SAQSTS [TAB1 (Ser395) 13, 13-residue O-GlcNAc glycopeptide derived from TAB1 Ser395 site]”, the results for the Michaelis-Menten constant (Km) at hOGA [1] (listed as PVSVPYS(O-GlcNAc)SAQSTS), at hOGA [1] and at hOGA Y69K were 940 ± 80 µM, 900 ± 30 µM and more than 4000 µM, respectively.
Take “VAHS(O-GlcNAc)GAK [hOGA (Ser405) 7, 7-residue O-GlcNAc glycopeptide derived from hOGA Ser405 site]”: the Km on hOGA [2] was 790 ± 40 µM; at hOGA Y69K, more than 4000 µM.
On to “p53 (Ser149) 11: 11-residue O-GlcNAc glycopeptide derived from p53 Ser149 site”, for which the results for the Km with hOGA [1] and with hOGA Y69K were 21 ± 3 µM and 350 ± 20 µM, respectively.

What is called Km is the substrate concentration at which the rate is half of its maximum.
